Assay results from article PMC3556473, “Absorption, metabolism and excretion of [^14C]pomalidomide in humans following oral administration” (Cancer Chemotherapy and Pharmacology, 2012).
Several values for one entry are separate records, joined by “and”; a condition that tells them apart may be missing. Equal values may be shown once.

What was measured:
[1] = Plasma pharmacokinetics of pomalidomide and circulating metabolites by radiochromatography (metabolite profiling); format: in vivo, human; set-up: AUC0–24 / AUC0−∞: concentration or dose not given beside the values; conditions: for Plasma (% AUC relative to TRA): AUC0–24 (unchanged drug or metabolite)/AUC0–24 (TRA) * 100 %; for Tmax / half-life: human, oral, 2 mg; for Tmax / half-life / AUC0–24 / AUC0−∞ / C max: plasma, radiochromatography; for Tmax: median and range; for half-life: male, read-out: t ½ (converted); for half-life / AUC0–24 / AUC0−∞ / C max: geometric mean (%CV); for AUC/AUCTRA: plasma exposure relative to total radioactivity
Experimental: Individual plasma samples collected from all subjects at 1, 2.5, 4, 6, 10, 12 and 24 h post-dose were analyzed for metabolite profiling. Samples were extracted with acetonitrile, the supernatant was removed, and the pellet was washed with 0.1 % formic acid in water and extracted again with acetonitrile. The combined supernatants were adjusted to 15 or 25 mL by adding acetonitrile then evaporated to dryness under a stream of nitrogen. The residues were re-suspended in 0.1 % formic acid in water, assayed for extraction recovery and analyzed for metabolite profiling. A control plasma sample spiked with [^14C]pomalidomide was extracted in a similar manner to determine the extraction efficiency and stability of [^14C]pomalidomide.
(§1) HPLC analysis for metabolite profiling (HPLC Method 1) was performed using a Waters 2695 Alliance Separation Module (Waters Corp., Milford, MA) with the autosampler set to 4 °C. [^14C]Pomalidomide and metabolites were separated using an ACE C18 column (150 × 4.6 mm, 3 μm; Advanced Chromatography Technologies, Aberdeen, Scotland) equipped with an ACE C18 guard column (10 × 3 mm, 3 μm). The mobile phases used were 25 mM ammonium acetate in water: pH 5.5 with formic acid (mobile phase A) and methanol (mobile phase B). The column temperature was 30 °C, and the flow rate was 0.7 mL/min. The linear gradient was delivered as follows: 0–2 min 100 % A; 2–38 min to 64 % A; 38–44 min to 0 % A; 44–48 min hold at 0 % A; return to initial conditions over 2 min.
(§2) Radioactivity profiles for plasma and excreta were determined by collecting the column eluate into 96-well Deepwell LumaPlates™ at a rate of 0.25 min/fraction. The plates were dried and the radioactivity in each well determined using a PerkinElmer TopCount® NXT™ Microplate Scintillation Counter. HPLC radiochromatograms were reconstructed using LC-ARC data handling software.
For pomalidomide and metabolite concentrations in plasma based on metabolite profiling data, pharmacokinetic data were generated by non-compartmental analysis of plasma versus time profiles using WinNonlin (version 4.1, Enterprise Edition).

[2] = Metabolite profiling of urine and feces (% of dose excreted); format: in vivo, human; conditions: radiochromatography; for % of dose excreted, Urine: pooled urine 0–72 h
Experimental: For each subject, urine samples were pooled using an equal percentage by volume of the 0–6, 6–12, 12–24, 24–48 and 48–72 h samples. Pools of the 0–6, 6–12, 12–24, 24–48 and 48-72 h collections were also prepared across subjects and analyzed for metabolite profiling. Samples were mixed and centrifuged prior to the supernatants being transferred to fresh tubes for metabolite profiling analysis.
For each subject, fecal homogenates for metabolite profiling were pooled using an equal percentage by weight of the 0–24, 24–48, 48–72 and 72–96 h samples. Pools of the 0–24, 24-48, 48–72 and 72–96 h collections were also prepared across subjects and analyzed for metabolite profiling. An aliquot of each pool was extracted with acetonitrile; samples were mixed and centrifuged. The supernatant was removed and the pellets re-suspended with 0.1 % formic acid and extracted with acetonitrile. The combined supernatants were evaporated to dryness under a stream of nitrogen and the residue re-suspended in methanol:0.1 % formic acid in water (1:1). Samples were assayed for extraction recovery prior to metabolite profiling. A control fecal homogenate spiked with [^14C]pomalidomide was extracted in a similar manner to determine the extraction efficiency and stability of [^14C]pomalidomide.
as §1, §2

[3] = system: recombinant human CYP (rCYP) enzymes; assay: Incubations of [14C]pomalidomide with 10 recombinant human CYP enzymes, radiochromatography / LC–MS/MS; format: in vitro ADME
Experimental: The CYP enzymes responsible for the formation of the hydroxy pomalidomide metabolites were investigated using 10 recombinant human CYP (rCYP) enzymes (CYP1A2, CYP2A6, CYP2B6, CYP2C8, CYP2C9, CYP2C19, CYP2D6, CYP2E1, CYP3A4 and CYP3A5) at 100 pmol/mL. Incubations were prepared using [^14C]pomalidomide (1 μM) in 0.1 M potassium phosphate buffer (pH 7.4) with 4 mM MgCl2, pre-incubated for 5 min at 37 °C. Reactions were initiated by the addition of 1 mM NADPH and continued for 30 or 60 min. Reactions were quenched with two volumes of ice-cold 0.1 % formic acid in acetonitrile containing [^13C5]pomalidomide as internal standard. The samples were mixed and centrifuged, and a subsample of the supernatant evaporated to dryness. The resulting pellet was reconstituted in 0.1 % formic acid in water and acetonitrile (4:1, v/v) and analyzed using HPLC with radiochromatography and/or LC–MS/MS. The rate of formation of the notable human metabolite M17 was calculated and scaled to human in vivo situation using relative abundance method.

H929 MM cell = assay: Inhibition of MM cell proliferation ([3H]-thymidine incorporation, 3-day culture); format: cell-based; conditions: Homo sapiens, NCI-H929
Experimental: (§3) Metabolites and hydrolysis products of pomalidomide were tested for pharmacological activity in the following three assay systems: (1) inhibition of MM cell proliferation, (2) enhancement of primary human T cell IL-2 production and (3) inhibition of TNF-α production by lipopolysaccharide (LPS)-stimulated human peripheral blood mononuclear cells (PBMC). For all three assay types, compounds were dissolved in 100 % dimethyl sulfoxide (DMSO) and diluted into complete cell culture medium, consisting of Roswell Park Memorial Institute (RPMI)-1640 plus penicillin, streptomycin and L-glutamine (Mediatech, Manassas, VA). The MM cell proliferation cell culture medium contained 10 % fetal bovine serum, while the primary human cell cultures contained 10 % human AB serum (Invitrogen, Brown Deer, WI). The final DMSO concentration in the cell culture media was 0.25 %.
(§4) The human MM cell line OPM-2 was obtained from DSMZ (Braunschweig, Germany), and human MM cell lines U266 B1 and NCI-H929 were obtained from ATCC (Manassas, VA). Inhibition of MM cell proliferation was assessed by the [^3H]-thymidine incorporation assay in a 3-day culture in the presence of compounds in complete medium, as previously described. Primary human T cells were isolated from PBMC by negative selection using the RosetteSep T Cell Enrichment Cocktail (STEMCELL Technologies, Tukwila, WA) according to the manufacturer’s procedures. Costimulation of T cell IL-2 production was measured in a 2-day culture of primary human T cells isolated from healthy donors stimulated with anti-CD3 antibody in the presence of compounds, as previously described. Inhibition of TNF-α production by LPS-stimulated human PBMC was measured in a 1-day culture in the presence of compound, as previously described.

OPM-2 MM cell = assay: as above; format: cell-based; conditions: Homo sapiens
Experimental: as §3, §4

U266 MM cell = assay: as above; format: cell-based; conditions: Homo sapiens, U-266
Experimental: as §3, §4

T cell IL-2 production = assay: Enhancement of primary human T cell IL-2 production (anti-CD3 stimulated, 2-day culture); format: cell-based; conditions: 48 h, anti-CD3 stimulated primary human T cells
Experimental: as §3, §4

PBMC TNF-α production = assay: Inhibition of TNF-α production by LPS-stimulated human PBMC (1-day culture); format: cell-based; conditions: 24 h
Experimental: as §3, §4

SMILES	Plasma (% AUC relative to TRA) [1] [%]	Tmax [1] [h]	half-life [1] [h]	AUC/AUCTRA [1] [%]	AUC0–24 [1]	AUC0−∞ [1]	C max [1]	% of dose excreted, Urine [2]	formation of metabolite in rCYP incubations (LC–MS/MS) ([3]; any of the samples analyzed)	IC50 (H929 MM cell) [nM]	IC50 (OPM-2 MM cell) [nM]	IC50 (U266 MM cell) [nM]	EC50 (T cell IL-2 production) [nM]	IC50 (PBMC TNF-α production) [nM]	% of dose excreted, Feces ([2]; pooled feces 0–96 h) [%]	level of metabolite detected by radiochromatography in rCYP incubations ([3]; all rCYP incubations of [14C]pomalidomide 1 μM)	level of metabolite detected by radiochromatography in the absence of enzyme ([3]; incubations of [14C]pomalidomide without enzyme) [%]
Nc1ccc(O)c2c1C(=O)N(C1CCC(=O)NC1=O)C2=O (stereo not drawn) [Metabolite M16, 7-hydroxy pomalidomide]	6.1	1	14.2	6.13	11.9 (16.8) ngEq*h/mL	17.6 (29.9) ngEq*h/mL	0.907 (27.4) ngEq/mL	7.0%	not observed	> 1000	> 1000	> 1000	> 10000	> 10000			
NC(=O)CCC(C(=O)O)N1C(=O)c2cccc(N)c2C1=O (stereo not drawn) [Metabolite M11]	6.3	2.5	10	6.34	12.3 (43.6) ngEq*h/mL	15.9 (59.7) ngEq*h/mL	0.965 (33.3) ngEq/mL	23% and 23.3%		> 1000	> 1000	> 1000	> 10000	> 10000	0.3	2.5–5.9%	5.5
